# Laboratory results: patent publication US20220409637A1, “COVID-19 THERAPEUTICS AND METHODS OF TREATMENT” (priority 2020, published 2022)
# Experiments:
# [1] = LD50; format: in vivo; details: 70 kg human
# [2] = in vivo; cited from earlier work
# [3] = test system: ACE2; assay: Externalization of ACE2 on cell surface, anti-human ACE2 antibody / horseradish peroxidase staining (FIG. 2); format: cell-based; details: human brain endothelial cells, 10 mM Diminazene for 3 hours, n=4
# Description: FIG. 2 is a graph of externalization of ACE2 on cell surface after treatment with diminazene. The inventors cultured human brain endothelial cells to confluency and exposed these cells to 10 mM Diminazene for 3 hours after which they were fixed in 3.7% phosphate buffered formaldehyde for 30 mins. Cells were then incubated in 1:250 rabbit antibhuman ACE2 (overnite) followed by washes and then goat anti rabbit horseradish peroxidase (1 h).
# [4] = test system: T. congolense-infected mice; details: cited from earlier work
# [5] = test system: viral infection of ACE2 expressing cell monolayers (WT spike); assay: Infectivity of ACE2 expressing cell monolayers by virus (WT spike) (FIGS. 3-6); format: cell-based; details: for infectivity of cells: concentrations between 1 mM and 0.01 mM
# Description: This is equivalent to a high dose of 515 mg/kg (1 mM) to the lowest dose of 5.15 mg/kg (0.01 mM). Assuming 100% biological distribution in a 70 kg human, 10^-4M is a dose of 3.5 g and 10^-5M is 350 mg.
# This is equivalent to a high dose of 515 mg/kg (1 mM) to the lowest dose of 5.15 mg/kg.
# [6] = test system: ACE2; format: cell-based
Compound,LD50 as total dose [1] [grams],LD50 [2] [mg/kg],average ACE2 signal on cell surface of treated monolayers [3],serum pro-inflammatory cytokine levels [4],"infectivity of cells ([5]; infectious ratio 1:100 viruses per cell, FIG. 3)","infectivity of cells ([5]; infectious ratio 5:100 viruses per cell, FIG. 4)","infectivity of cells ([5]; infectious ratio 10:100 viruses per cell, FIG. 5)","infectivity of cells expressing WT spike (amount of green signal produced by viral infection) ([5]; ACE2 expressing cell monolayers, infectious ratio 5:100 viruses per cell, 1 mM to 0.01 mM, FIG. 6)",externalization of ACE2 [6],"ACE2-mediated binding and signal of VSV virus-expressing COVID-spike protein in target cells ([6]; target cells, FIG. 1)"
"N=C(N)c1ccc(/N=N/Nc2ccc(C(=N)N)cc2)cc1 [Diminazene, 4,4′-(1-Triazene-1,3-diyl) bis(benzenecarboximidamide)]",~24,~350,increased average signal in treated monolayers consistent with externalization of ACE2 on the cell surface,reduces serum pro-inflammatory cytokine levels,dose-dependent reduction in the infectivity of cells,dose-dependent reduction in the infectivity of cells,dose-dependent reduction in the infectivity of cells,,,
CC(=O)NCC(=O)O.CC(=O)NCC(=O)O.N=C(N)c1ccc(N=NNc2ccc(C(=N)N)cc2)cc1 [diminazene aceturate],,,,,,,,dose-dependent reduction in the infectivity of cells expressing WT spike,concentration-dependently causes externalization of ACE2,increases ACE2-mediated binding and signal
